EP4806900A2, “RAS INHIBITORS” (Revolution Medicines, Inc., priority 2019, dated 2021)
pIC50: −log10 of the molar value.

Tested on: NCI-H358 (K-Ras G12C)
Experiment: CellTiter-Glo cell viability assay, NCI-H358
Type: cell-based, human
Conditions: Table 5; read-out: H358 Cell Viability assay data (K-Ras G12C, IC50)
Protocol: Note - The following protocol describes a procedure for monitoring cell viability of K-Ras mutant cancer cell lines in response to a compound of the invention. Other RAS isoforms may be employed, though the number of cells to be seeded will vary based on cell line used.
Test compounds (132.5 nL) were directly dispensed into the assay plates containing cells. […] On day 5, assay plates and their contents were equilibrated to room temperature for approximately 30 minutes. […] Luminescence was measured using the PerkinElmer Enspire. Data were normalized by the following: (Sample signal/Avg. DMSO)*100. The data were fit using a four-parameter logistic fit.

pIC50	SMILES
< 6.00	C=CC(=O)N1CC[C@H](C(=O)N(C)[C@H](C(=O)N[C@H]2Cc3cc(N)cc(c3)-c3ccc4c(c3)c(c(-c3ccccc3CCOC)n4CC)CC(C)(C)COC(=O)[C@@H]3CCCN(N3)C2=O)C(C)C)C1 [Compound A2, (2S)-N-[(8S,14S)-4-amino-22-ethyl-21-[2-(2-methoxyethyl)phenyl]-18,18-dimethyl-9,15-dioxo-16-oxa-10,22,28-triazapentacyclo[18.5.2.1^2,6.1^10,^14.0^23,^27]nonacosa-1(26),2,4,6(29),20,23(27),24-heptaen-8-yl]-3-methyl-2-{N-methyl-1-[(3S)-1-(prop-2-enoyl)pyrrolidin-3-yl]formamido}butanamide]
7.00 to 8.00	C=CC(=O)N1CC[C@H](C(=O)N(C)[C@H](C(=O)N[C@H]2Cc3cc(O)cc(c3)-c3ccc4c(c3)c(c(-c3ccccc3CN(C)C)n4CC)CC(C)(C)COC(=O)[C@@H]3CCCN(N3)C2=O)C(C)C)C1 [Compound A5]
6.00 to 7.00	C=CC(=O)N1CC[C@H](C(=O)N(C)[C@H](C(=O)N[C@H]2Cc3cc(O)cc(c3)-c3ccc4c(c3)c(c(-c3ccccc3CCOC)n4CC)CC(C)(C)COC(=O)[C@@H]3CCCN(N3)C2=O)C2CCOCC2)C1 [Compound A6]
6.00 to 7.00	C=CC(=O)N1CC[C@H](C(=O)N(C)[C@H](C(=O)N[C@H]2Cc3cc(OC(=O)CCN4CCN(C)CC4)cc(c3)-c3ccc4c(c3)c(c(-c3ccccc3CCOC)n4CC)CC(C)(C)COC(=O)[C@@H]3CCCN(N3)C2=O)C(C)C)C1 [Compound A7]
6.00 to 7.00	C=CC(=O)N1CC[C@H](C(=O)N(C)[C@H](C(=O)N[C@H]2Cc3cc(OC(=O)CN)cc(c3)-c3ccc4c(c3)c(c(-c3ccccc3CCOC)n4CC)CC(C)(C)COC(=O)[C@@H]3CCCN(N3)C2=O)C(C)C)C1 [Compound A8]
6.00 to 7.00	C=CC(=O)N1CC[C@H](C(=O)N(C)[C@H](C(=O)N[C@H]2Cc3cc(cc(O)c3F)-c3ccc4c(c3)c(c(-c3ccccc3CCOC)n4CC)CC(C)(C)COC(=O)[C@@H]3CCCN(N3)C2=O)C(C)C)C1 [Compound A9]
6.00 to 7.00	C=CC(=O)N1CCC(F)(C(=O)N(C)[C@H](C(=O)N[C@H]2Cc3cc(O)cc(c3)-c3ccc4c(c3)c(c(-c3ccccc3CCOC)n4CC)CC(C)(C)COC(=O)[C@@H]3CCCN(N3)C2=O)C(C)C)CC1 [Compound A11]
6.00 to 7.00	C=CC(=O)N1CCCN(C(=O)N(C)[C@H](C(=O)N[C@H]2Cc3cc(O)cc(c3)-c3ccc4c(c3)c(c(-c3ccccc3CCOC)n4CC)CC(C)(C)COC(=O)[C@@H]3CCCN(N3)C2=O)C(C)C)CC1 [Compound A13]
6.00 to 7.00	C=CC(=O)N1CCC(C(=O)N(C)[C@H](C(=O)N[C@H]2Cc3cc(O)cc(c3)-c3ccc4c(c3)c(c(-c3ccccc3CCOC)n4CC)CC(C)(C)COC(=O)[C@@H]3CCCN(N3)C2=O)C(C)C)CC1 [Compound A14]
7.00 to 8.00	C=CC(=O)N1CC[C@H](C(=O)N(C)[C@H](C(=O)N[C@H]2Cc3cc(O)cc(c3)-c3ccc4c(c3)c(c(-c3cccnc3COC)n4CC)CC(C)(C)COC(=O)[C@@H]3CCCN(N3)C2=O)C(C)C)C1 [Compound A16]
6.00 to 7.00	C=CC(=O)N1CC[C@H](C(=O)N(C)[C@H](C(=O)N[C@H]2Cc3cc(O)cc(c3)-c3ccc4c(c3)c(c(-c3ccccc3OC)n4CC)CC(C)(C)COC(=O)[C@@H]3CCCN(N3)C2=O)C(C)C)C1 [Compound A17]
6.00 to 7.00	C=CC(=O)N1CCN(C(=O)N(C)[C@H](C(=O)N[C@H]2Cc3cc(O)cc(c3)-c3ccc4c(c3)c(c(-c3ccccc3CCOC)n4CC)CC(C)(C)COC(=O)[C@@H]3CCCN(N3)C2=O)C(C)C)CC1 [Compound A18]
7.00 to 8.00	C=CC(=O)N1CC[C@H](C(=O)N(C)[C@H](C(=O)N[C@H]2Cc3cc(O)cc(c3)-c3ccc4c(c3)c(c(-c3ccccc3[C@H](C)OC)n4CC)CC(C)(C)COC(=O)[C@@H]3CCCN(N3)C2=O)C(C)C)C1 [Compound A22]
6.00 to 7.00	C=CC(=O)N1CC[C@H](C(=O)N(C)[C@H](C(=O)N[C@H]2Cc3cc(O)cc(c3)-c3ccc4c(c3)c(c(-c3ccccc3)n4CC)CC(C)(C)COC(=O)[C@@H]3CCCN(N3)C2=O)C(C)C)C1 [Compound A23]
< 6.00	C=CC(=O)N1CC[C@H](C(=O)N(C)[C@H](C(=O)N[C@H]2Cc3cccc(c3)-c3ccc4c(c3)c(c(-c3ccccc3CCOC)n4CC)CC(C)(C)COC(=O)[C@@H]3CCCN(N3)C2=O)C(C)C)C1 [Compound A24]
6.00 to 7.00	C=CC(=O)N1CC[C@H](C(=O)N(C)[C@H](C(=O)N[C@H]2Cc3cc(O)cc(c3)-c3ccc4c(c3)c(c(-c3c(F)cccc3CCOC)n4CC)CC(C)(C)COC(=O)[C@@H]3CCCN(N3)C2=O)C(C)C)C1 [Compound A25]
6.00 to 7.00	C=CC(=O)N1CC[C@H](C(=O)N(C)[C@H](C(=O)N[C@H]2Cc3cc(O)cc(c3)-c3ccc4c(c3)c(c(-c3ccccc3[C@@H](C)OC)n4CC)CC(C)(C)COC(=O)[C@@H]3CCCN(N3)C2=O)C(C)C)C1 [Compound A29]
6.00 to 7.00	C=CC(=O)N1CCC(C(=O)N(C)[C@H](C(=O)N[C@H]2Cc3cc(O)cc(c3)-c3ccc4c(c3)c(c(-c3ccccc3CN(C)C)n4CC)CC(C)(C)COC(=O)[C@@H]3CCCN(N3)C2=O)C(C)C)CC1 [Compound A33]
7.00 to 8.00	C=CC(=O)N1CC[C@H](C(=O)N(C)[C@H](C(=O)N[C@H]2Cc3cc(O)cc(c3)-c3ccc4c(c3)c(c(-c3ccccc3CCOC)n4C(C)(C)C#N)CC(C)(C)COC(=O)[C@@H]3CCCN(N3)C2=O)C(C)C)C1 [Compound A34]
7.00 to 8.00	C=CC(=O)N1C[C@H](C)[C@H](C(=O)N(C)[C@H](C(=O)N[C@H]2Cc3cc(O)cc(c3)-c3ccc4c(c3)c(c(-c3ccccc3CCOC)n4CC)CC(C)(C)COC(=O)[C@@H]3CCCN(N3)C2=O)C(C)C)C1 [Compound A41]
6.00 to 7.00	C=CC(=O)N1CC[C@H](C(=O)N(C)[C@H](C(=O)N[C@H]2Cc3cc(N)cc(c3)-c3ccc4c(c3)c(c(-c3ccccc3COC)n4CC)CC(C)(C)COC(=O)[C@@H]3CCCN(N3)C2=O)C(C)C)C1 [Compound A42]

More lines, now with the values behind:

SMILES	pIC50
C=CC(=O)N1CC[C@H](C(=O)N(C)[C@H](C(=O)N[C@H]2Cc3cc(O)cc(c3)-c3ccc4c(c3)c(c(-c3ccc(CN(C)C)cc3)n4CC)CC(C)(C)COC(=O)[C@@H]3CCCN(N3)C2=O)C(C)C)C1 [Compound A3]	6.00 to 7.00
CCn1c(-c2ccccc2CCOC)c2c3cc(ccc31)-c1cc(O)cc(c1)C[C@H](NC(=O)[C@H](C(C)C)N(C)C(=O)C1CCN(C(=O)/C=C/CN(C)C)CC1)C(=O)N1CCC[C@H](N1)C(=O)OCC(C)(C)C2 [Compound A19]	6.00 to 7.00
C=CC(=O)N1CCC(F)(C(=O)N(C)[C@H](C(=O)N[C@H]2Cc3cc(O)cc(c3)-c3ccc4c(c3)c(c(-c3ccccc3CN(C)C)n4CC)CC(C)(C)COC(=O)[C@@H]3CCCN(N3)C2=O)C(C)C)CC1 [Compound A20]	7.00 to 8.00
C=CC(=O)N1CC[C@H](C(=O)N(C)[C@H](C(=O)N[C@H]2Cc3cc(O)cc(c3)-c3ccc4c(c3)c(c(-c3ccc(CC(=O)O)cc3)n4CC)CC(C)(C)COC(=O)[C@@H]3CCCN(N3)C2=O)C(C)C)C1 [Compound A21]	< 6.00
C=CC(=O)N1CC[C@H](C(=O)N(C)[C@H](C(=O)N[C@H]2Cc3cc(O)cc(c3)-c3ccc4c(c3)c(c(-c3ccccc3N3CCOCC3)n4CC)CC(C)(C)COC(=O)[C@@H]3CCCN(N3)C2=O)C(C)C)C1 [Compound A26]	6.00 to 7.00
C=CC(=O)N1CC[C@H](C(=O)N(C)[C@H](C(=O)N[C@H]2Cc3cc(O)cc(c3)-c3ccc4c(c3)c(c(-c3ccccc3COC)n4CC)CC(C)(C)COC(=O)[C@@H]3CCCN(N3)C2=O)C2CCCC2)C1 [Compound A27]	7.00 to 8.00
C=CC(=O)N1CC[C@H](C(=O)N(C)[C@H](C(=O)N[C@H]2Cc3cc(O)cc(c3)-c3ccc4c(c3)c(c(-c3cccc(CN(C)C)c3)n4CC)CC(C)(C)COC(=O)[C@@H]3CCCN(N3)C2=O)C(C)C)C1 [Compound A30]	7.00 to 8.00
C=CC(=O)N1CC2(CCN([C@H](C(=O)N[C@H]3Cc4cc(O)cc(c4)-c4ccc5c(c4)c(c(-c4ccccc4CCOC)n5CC)CC(C)(C)COC(=O)[C@@H]4CCCN(N4)C3=O)C(C)C)C2=O)C1 [Compound A31]	7.00 to 8.00
C=CC(=O)N1CC[C@H](C(=O)N(C)[C@H](C(=O)N[C@H]2Cc3cc(O)cc(c3)-c3ccc4c(c3)c(c(-c3ccc5cc(CN(C)C)n(C)c5c3)n4CC)CC(C)(C)COC(=O)[C@@H]3CCCN(N3)C2=O)C(C)C)C1 [Compound A35]	7.00 to 8.00
CCn1c(-c2ccccc2CCOC)c2c3cc(ccc31)-c1cc(O)cc(c1)C[C@H](NC(=O)[C@H](C(C)C)N(C)C(=O)[C@H]1CCN(C(=O)C#CCN(C)C)C1)C(=O)N1CCC[C@H](N1)C(=O)OCC(C)(C)C2 [Compound A38]	> 8.00
C=CC(=O)N1CC[C@H](C(=O)N(C)[C@H](C(=O)N[C@H]2Cc3cc(O)cc(c3)-c3ccc4c(c3)c(c(-c3ccc(C5CCN(C)CC5)cc3)n4CC)CC(C)(C)COC(=O)[C@@H]3CCCN(N3)C2=O)C(C)C)C1 [Compound A39]	7.00 to 8.00
C=CC(=O)N1CC[C@H](C(=O)N(C)[C@H](C(=O)N[C@H]2Cc3cc(O)cc(c3)-c3ccc4c(c3)c(c(-c3ccc5c(c3)CCN(C)C5)n4CC)CC(C)(C)COC(=O)[C@@H]3CCCN(N3)C2=O)C(C)C)C1 [Compound A40]	7.00 to 8.00
C=CC(=O)N1C[C@H](C)[C@H](C(=O)N(C)[C@H](C(=O)N[C@H]2Cc3cc(O)cc(c3)-c3ccc4c(c3)c(c(-c3ccccc3CN(C)C)n4CC)CC(C)(C)COC(=O)[C@@H]3CCCN(N3)C2=O)C2CCCC2)C1 [Compound A43]	7.00 to 8.00
C=CC(=O)N1CC[C@H](C(=O)N(C)[C@H](C(=O)N[C@H]2Cc3cc(O)cc(c3)-c3ccc4c(c3)c(c(-c3cccnc3COCC)n4CC)CC(C)(C)COC(=O)[C@@H]3CCCN(N3)C2=O)C(C)C)C1 [Compound A44]	7.00 to 8.00
C=CC(=O)N1CC[C@H](C(=O)N(C)[C@H](C(=O)N[C@H]2Cc3cc(O)cc(c3)-c3ccc4c(c3)c(c(-c3cccnc3)n4CC)CC(C)(C)COC(=O)[C@@H]3CCCN(N3)C2=O)C(C)C)C1 [Compound A45]	7.00 to 8.00
